Laboratory results from patent US20240101602A1, “ANTIMICROBIAL PEPTIDES AND METHOD OF PREVENTING OR TREATING INFECTION BY USING THE SAME” (priority 2020, published 2024).
In brackets after ≈: the same amount, converted by molar mass. Where two headings read alike, the source gives them in different places. Non-standard residues stand in square brackets, D forms with d. Residues, ends and D or L forms follow the SMILES beside them.

Legend:
[1] = tested on: Escherichia coli strain DH5a; conditions: DH5a, 24 h
[2] = tested on: Candida albicans SC5314
[3] = tested on: Pseudomonas syringae pv. tomato strain DC3000
[4] = tested on: Xanthomonas euvesicatoria strain Xvt28; assay: IC50 of bacterial growth (OD600) in rich liquid medium; format: cell-based; conditions: Xev Xvt28, 24 h, purified peptides
Procedure: (§1) To measure the antimicrobial activity, single colony grown on an optimal rich agar medium for each bacterium was picked and grew in 3 mL of the same rich liquid medium for 4 to 6 h. The bacterial culture was then diluted in the same medium to give a final concentration of OD600=0.08 and then further diluted […] in the same medium. In each well of a 96-well polystyrene plate, 90 μL of the diluted culture was mixed with 10 μL of the peptide to give a peptide concentration of 0, 2, 10, and 20 μg/mL (final cell concentration is 5×10^5 CFU/mL). OD600 was measured after incubation at an optimal temperature for 24 h. IC50 was determined as the lowest peptide concentration inhibiting 50% of bacterial growth.

[5] = tested on: Xanthomonas campestris pv. campestris strain Xcc17; assay: as above; format: cell-based; conditions: Xcc Xcc17, 24 h, purified peptides
Procedure: as §1

[6] = tested on: Pseudomonas syringae pv. syringae strain B728a; conditions: Pss B728a; Table 7
[7] = tested on: Xanthomonas oryzae pv. oryzae strain Xoo28; conditions: Xoo Xoo28; rich medium, 24 h, purified peptides
[8] = tested on: Xanthomonas euvesicatoria strain Xvt28; assay: MIC and MBC by serial dilution in 96-well plate; format: cell-based; conditions: Xev Xvt28; Table 7
Procedure: (§2) The effect of peptide length on the antimicrobial activity was investigated by deciding the minimal inhibitory concentration (MIC) and minimal bactericidal concentration (MBC) for each peptide against the pathogen with the media and growth conditions of phytopathogenic bacteria and E. coli as described in Table 1. Single bacterial colony grown on an optimal rich agar medium was picked, and each grew in 3 mL of the same rich liquid medium for 4 to 6 h.
(§3) For experiments carried out in the rich medium, the bacterial broth culture was then diluted in the same medium to give a final concentration of OD600=0.08, and then further diluted 100 folds in the same medium.
(§4) For experiments carried out in the minimal medium, the bacterial cells were collected from the bacterial liquid culture by centrifugation, re-suspended in an optimal minimal medium to give a final concentration of OD600=0.08, and then further diluted 100 folds in the same minimal medium.
(§5) Fifty microliters of serially diluted peptides (2-fold the final concentration) were added in a 96-well polystyrene plate with 50 μL of the bacterial culture. The final concentrations of peptides were 0, 2, 4, 8, 16 and 32 μg/mL. The plates were incubated at an optimal temperature without shaking.
(§6) MBC was determined as the lowest peptide concentration at which no colonies formed.

[9] = tested on: Xanthomonas campestris pv. campestris strain Xcc17; assay: MIC and MBC by serial dilution in 96-well plate; format: cell-based; conditions: Xcc Xcc17; Table 7
Procedure: as §2, §3, §4, §5, §6

[10] = tested on: Pectobacterium carotovorum subsp. carotovorum; format: cell-based
Procedure, shortened: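 Bacteria were grown 4–6 h, set to OD600=0.08 in rich or minimal medium, then diluted 100-fold. This inoculum was mixed 1:1 with 2-fold serial peptide dilutions and incubated static at optimal temperature. MIC was read from growth and MBC taken as the lowest concentration giving no colonies.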

[11] = tested on: Agrobacterium tumefaciens strain Atu C58C1; conditions: Atu C58C1; Table 7
[12] = tested on: Eco DH5α; assay: MIC and MBC by serial dilution in 96-well plate; format: cell-based, Escherichia coli; conditions: Table 7
Procedure: as §2, §3, §4, §5, §6

[13] = CD spectra of pepD in liposomes; format: physicochemical; conditions: CD in water, DOPC, POPE/POPG (1:1, w/w) liposomes
Procedure: 1,2-dioleoyl-sn-glycero-3-phosphocholine (DOPC) is commonly used to mimic mammalian cell membrane. 1-Palmitoyl-2-oleoyl-sn-glycero-3-phosphoglycerol (POPG) has a negatively charged head group. The mixture of 1-palmitoyl-2-oleoyl-sn-glycero-3-phosphoethanolamine (POPE) and POPG is commonly used to mimic the negatively charged membrane surface of bacteria.
For the CD spectra of pepD in lipids, two kinds of liposomes DOPC and POPE/POPG (1:1, w/w) were prepared. DOPC (10 mg/mL) and POPE/POPG (14 mg/mL) were dissolved in chloroform/methanol (9/1, v/v) in a glass tube individually. The solvents were evaporated under the purge of nitrogen gas to form a thin lipid film on the tube surface. The tube was placed in vacuo overnight to completely remove the organic solvent. To rehydrate the lipid film, 400 μL deionized water was added and mixed in an Intelli-Mixer (rocker mode, 60 rpm) for one hour. Then, the water/lipid mixture was frozen in liquid nitrogen and thawed at 45° C. for 5 min. After five freeze-thaw cycles, liposomes were prepared by extruding the mixture through a polycarbonate filter (with 200-nm pore size) using an Avanti Mini-Extruder (Avanti Polar Lipids, USA). Purified pepD was dissolved in water (64 μg/mL) and mixed with an equal volume of the liposome suspension for CD measurement.

[14] = tested on: Xanthomonas oryzae pv. oryzae strain Xoo28; conditions: Xoo Xoo28; Table 7
[15] = tested on: Cryptococcus neoformans H99
[16] = tested on: Staphylococcus aureus BCRC 10777
[17] = tested on: Candida albicans 89 (echinocandin-resistant)
[18] = tested on: Staphylococcus epidermidis ATCC 14990
[19] = tested on: Acinetobacter baumannii ATCC 17978
[20] = tested on: Cryptococcus gattii WM276
[21] = tested on: Salmonella typhimurium NCHU 15721; conditions: murium NCHU 15721
[22] = tested on: Cryptococcus neoformans T1 (fluconazole-resistant)
[23] = tested on: Klebsiella pneumonia NTUH-K2044
[24] = tested on: Cryptococcus deuterogattii R265
[25] = tested on: Pseudomonas aeruginosa ATCC 9027; conditions: ATCC 9027
[26] = tested on: Candida albicans 12-99 (fluconazole-resistant)
[27] = tested on: Cryptococcus neoformans 89-610 (fluconazole-resistant)
[28] = tested on: red blood cells; format: cell-based, rat
Procedure: Further, the hemolytic activity of the antimicrobial peptides was tested. EDTA-treated rat whole blood was centrifuged at 840×g for 3 minutes at 4° C. to separate blood cells and plasma. The plasma was removed, and the blood cells were washed three times with PBS having the same volume as the original blood volume by gently turning the centrifuge tube upside down. After washing, ten microliters of blood cells were diluted in PBS 2000 times to count the cells. Finally, red blood cells were diluted to 5×10^8 cells/mL in PBS. Peptides were dissolved in water and filtered through a 0.2-μm filter to make a stock solution. The peptide concentration was quantitated by UV280. The peptide solution was diluted in PBS to different concentrations (5 times of tested concentration). Twenty microliters of peptide in PBS were mixed with 80 μL of red blood cell solution in a 96-well plate (V-bottom). […] The concentration of heme contained in each well was measured by UV405 using Infinite M1000 pro (Tecan). The hemolytic activity was calculated using the following formula: Hemolytic activity=[(F−F0)/(Ft−F0)]×100% • F is UV405 of the peptide-treated sample; • F0 is UV405 of sample without peptide (negative control); • Ft is UV405 of the Triton-treated sample (positive control).

## Ac-WKKLKKLLKKLKKLLKKL-NH2 [pepD]
[1]
  IC50: 10.0 µg/mL
[2]; SC5314, 48 h
  MIC: 16.0 µg/mL
[3]
  MBC: 24.0 µg/mL
  MIC: 16.0 µg/mL
[4]
  IC50: 4.0 µg/mL
[5]
  IC50: 4.0 µg/mL
[6]
  MBC: — (“—” indicates no antimicrobial activity being detected at the highest peptide concentration (32 μg/mL) tested in this study.)
  MIC: 32.0 µg/mL
[7]
  IC50: 8.0 µg/mL
[8]
  MBC: 18.7 µg/mL
  MIC: 5.3 µg/mL
[9]
  MBC: 6.7 µg/mL
  MIC: 2.7 µg/mL
[10]
  MIC: 32.0 µg/mL
[10]; Pcc, Table 7
  MBC: — (“—” indicates no antimicrobial activity being detected at the highest peptide concentration (32 μg/mL) tested in this study.)
[11]
  MBC: — (“—” indicates no antimicrobial activity being detected at the highest peptide concentration (32 μg/mL) tested in this study.)
[12]
  MBC: 10.0 µg/mL
  MIC: 10.0 µg/mL
[13]
  lipid selectivity: only interacts with negatively charged lipid
[14]
  MBC: 4.0 µg/mL
  MIC: 4.0 µg/mL

## CC(=O)N[C@@H](Cc1c[nH]c2ccccc12)C(=O)N[C@H](CCCCN)C(=O)N[C@H](CCCCN)C(=O)N[C@H](CC(C)C)C(=O)N[C@H](CCCCN)C(=O)N[C@H](CCCCN)C(=O)N[C@H](CC(C)C)C(=O)N[C@H](CC(C)C)C(=O)N[C@H](CCCCN)C(=O)N[C@H](CCCCN)C(=O)N[C@H](CC(C)C)C(=O)N[C@H](CCCCN)C(=O)N[C@H](CCCCN)C(=O)N[C@H](CC(C)C)C(N)=O [pepdD2, Ac-Wkklkkllkklkkl-NH2] (Ac-W[dK][dK][dL][dK][dK][dL][dL][dK][dK][dL][dK][dK][dL]-NH2)
[15]; Cryptococcus neoformans H99
  MIC: 4 µg/mL (≈ 2.18 µM)
[15]; H99
  MFC: 4 µg/mL (≈ 2.18 µM)
[16]
  MBC: 32 µg/mL (≈ 17.4 µM)
  MIC: 32 µg/mL (≈ 17.4 µM)
[17]
  MFC: 32 µg/mL (≈ 17.4 µM)
  MIC: 32 µg/mL (≈ 17.4 µM)
[18]
  MBC: 32 µg/mL (≈ 17.4 µM)
  MIC: 16 µg/mL (≈ 8.71 µM)
[19]
  MBC: 8 µg/mL (≈ 4.36 µM)
[20]
  MFC: 2 µg/mL (≈ 1.09 µM)
  MIC: 2 µg/mL (≈ 1.09 µM)
[21]
  MBC: 16 µg/mL (≈ 8.71 µM)
  MIC: 16 µg/mL (≈ 8.71 µM)
[2]; SC5314
  MFC: 32 µg/mL (≈ 17.4 µM)
  MIC: 32 µg/mL (≈ 17.4 µM)
[22]; Cryptococcus neoformans T1 (fluconazole-resistant)
  MIC: 2 µg/mL (≈ 1.09 µM)
[22]; T1 (fluconazole-resistant)
  MFC: 2 µg/mL (≈ 1.09 µM)
[23]
  MBC: 32 µg/mL (≈ 17.4 µM)
  MIC: 32 µg/mL (≈ 17.4 µM)
[24]
  MFC: 2 µg/mL (≈ 1.09 µM)
[24]; Cryptococcus deuterogattii R265
  MIC: 2 µg/mL (≈ 1.09 µM)
[25]
  MBC: 4 µg/mL (≈ 2.18 µM)
  MIC: 4 µg/mL (≈ 2.18 µM)
[26]
  MFC: 32 µg/mL (≈ 17.4 µM)
  MIC: 16 µg/mL (≈ 8.71 µM)
[27]; 89-610 (fluconazole-resistant)
  MFC: 2 µg/mL (≈ 1.09 µM)
[27]; Cryptococcus neoformans 89-610 (fluconazole-resistant)
  MIC: 2 µg/mL (≈ 1.09 µM)
[28]
  hemolytic activity: very little or non-hemolytic activity
